Where two headings read alike, the source gives them in different places. Values belong to the compound of their own block, whether it stands above or below them.
Legend:
[1] = biological target: T1, soluble human furin (Homo sapiens, UniProt P09958); assay: furin enzyme assay with fluorogenic substrate pERTKR-mca; type: biochemical; conditions: for furin inhibition: peptide at 100 μM, 100 μM pERTKR-mca, Fig 1
T1 construct: Soluble human furin was purified from the conditioned medium; made in house; host or cells: CHO DG44 cells (stably transfected, methotrexate-amplified); purified from conditioned medium
T1 sequence (P09958 108-715 limits assumed): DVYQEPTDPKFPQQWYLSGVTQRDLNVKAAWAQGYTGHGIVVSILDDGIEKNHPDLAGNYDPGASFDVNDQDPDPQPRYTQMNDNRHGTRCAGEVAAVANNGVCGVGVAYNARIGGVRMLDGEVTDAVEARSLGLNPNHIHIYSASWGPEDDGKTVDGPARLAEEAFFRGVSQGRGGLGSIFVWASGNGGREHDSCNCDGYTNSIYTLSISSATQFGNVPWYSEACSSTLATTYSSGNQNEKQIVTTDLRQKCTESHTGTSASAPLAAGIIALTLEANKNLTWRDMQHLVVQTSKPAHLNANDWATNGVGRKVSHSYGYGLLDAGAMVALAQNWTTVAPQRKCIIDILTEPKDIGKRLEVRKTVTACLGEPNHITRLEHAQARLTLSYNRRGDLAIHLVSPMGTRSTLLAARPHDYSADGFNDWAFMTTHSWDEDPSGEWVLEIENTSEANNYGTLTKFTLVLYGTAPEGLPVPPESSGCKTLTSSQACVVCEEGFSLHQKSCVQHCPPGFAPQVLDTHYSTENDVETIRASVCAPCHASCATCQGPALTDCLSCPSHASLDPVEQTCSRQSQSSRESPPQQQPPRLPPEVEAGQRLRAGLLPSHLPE
Protocol: Soluble human furin was purified from the conditioned medium of stably-transfected, methotrexate-amplified CHO DG44 cells, as previously described. […] The HIV-1 TAT47-57 peptide was purchased from Creative Peptides (Shirley, NY). The Chariot reagent was purchased from Active Motif (Carlsbad, CA). […] The fourth peptide (W4-[R5]; N-acetyl-WWWW-[KRRRRR]) is N-terminally acetylated.
The furin assay was performed in 96-well polypropylene microtiter plates in a final volume of 50 μl, containing 100 mM HEPES, pH 7.0, 5 mM CaCl2, 0.1% Brij 35, 0.1% NaN3, and 0.1 mg/ml BSA. The substrate p-Glu-Arg-Thr-Lys-Arg-4-methylcoumaryl-7-amide (pERTKR-mca; Peptide Institute, Lexington, KY) was used at a final concentration of 100 μM. Furin was used at a final concentration of 20 nM. Reaction mixtures were incubated at 37°C and fluorescence measurements (380 nm excitation, 460 nm emission) were taken under kinetic conditions every minute for 60 min in a SpectraMax M2 microplate reader. […] After a 30-min preincubation at room temperature, 100 μM of pERTKR-methylaminocoumarin (mca) was added, and residual enzyme activities were monitored by measuring mca fluorescence intensity. Data were analyzed using Prism 5 as described previously. Due to cost considerations, Ki determinations were not performed for the HIV TAT peptide or for the Chariot reagent.
Soluble human furin, pre-incubated for 20 min at room temperature in the presence of (a) HIV-1 TAT (47–57) or (b) Chariot peptide, was tested at the specified concentrations. Furin activity was assessed by measuring the release of the fluorescent mca product from the fluorogenic substrate, pERTKR-mca.

[2] = system: intracellular convertase activity in CHO-GRAPfurin cells; assay: SEAP activity assay (GRAPfurin Golgi reporter); type: cell-based; conditions: 1 μM, 20–24 h at 37 °C
Protocol: CHO-GRAPfurin cells expressing the hybrid reporter protein GRAPfurin, consisting of the secreted alkaline phosphatase (SEAP) protein fused to a Golgi retention signal and a specific furin recognition/cleavage site, […] The medium was collected, centrifuged, and heated for 30 min at 65°C to inactivate non-relevant phosphatases. To test SEAP activity, 2.5 μl of heated medium was mixed with 100 μl of assay buffer (100 mM Tris-HCl, pH 10, 100 mM NaCl, 5 mM MgCl2) and 100 μl of 36 μM 4-methylumbelliferyl phosphate (MUP), a phosphatase substrate, made in 50 mM Tris-HCl, pH 10. Fluorescence was measured every 20 seconds after excitation at 365 nm and recording emission at 460 nm at 37°C for 1 h. Since SEAP released from the tethered furin reporter is secreted, SEAP levels in the medium are proportional to the activity of Golgi furin [24, 25]. The experiments were independently repeated three times using triplicate wells per condition.
Fig 4 Cyclic polyarginine peptides inhibit cellular convertase activity. (a) CHO cells were incubated with each compound at 1 μM for 24 h at 37°C, and cell viability was monitored by incubation for 4 h with WST-1. […] Secreted alkaline phosphatase activity was measured in the medium. […]

[3] = biological target: T1, soluble human furin; conditions: cited from earlier work; for Ki: furin
[4] = system: HT1080 fibrosarcoma cells; assay: Oris cell migration assay; type: cell-based; conditions: 10 μM peptide
Protocol: HT1080 fibrosarcoma cells (ATCC# CCL-121) were cultured to 80% confluence in growth medium (MEM (Earle’s salts + L-glutamine) 10% FBS, 1:100 non-essential amino acids (NEAA), 1 mM sodium pyruvate, 500 U/ml penicillin-streptomycin, and 1% gentamycin; Life Technologies). Cells were plated in an Oris Cell Migration Assay (Platypus Technologies) 96-well plate at 10^5 cells per well, following the manufacturer’s protocol. The next day, the growth medium was removed, the wells rinsed with PBS, and the cells were incubated in assay medium MEM (Earle’s salts + L-glutamine) containing 10% heat-inactivated FBS, 1:100 NEAA, 1 mM sodium pyruvate, 500U/ml penicillin-streptomycin, and 1% gentamycin in the presence or absence of inhibitors for 24 h at 37°C and 5% CO2. After incubation cells were rinsed with PBS (calcium and 20 mM HEPES, pH 7.4, as per the manufacturer’s protocol), and incubated with the Live / Dead Cell Stain Kit containing 2 μM calcein AM and 4 μM ethidium homodimer (EthD-1) for 30 min at 37°C and 5% CO2. Fluorescence was then measured at 485/528 nm excitation/emission for calcein AM, and 530/645 nm for EthD-1. […]
Fig 2 Effect of HIV-1 TAT47-57 peptide on cell migration of fibrosarcoma HT1080 cells. Cells were incubated with either 10 μM of peptide or vehicle (water) for 24 h at 37°C and cell migration was measured as described in “Materials and Methods”. […]

Compound: N=C(N)NCCC[C@@H]1NC(=O)[C@H](Cc2c[nH]c3ccccc23)NC(=O)[C@H](CS)NC(=O)[C@H](Cc2c[nH]c3ccccc23)NC(=O)[C@H](CCCNC(=N)N)NC(=O)[C@H](Cc2c[nH]c3ccccc23)NC(=O)[C@H](CCCNC(=N)N)NC(=O)[C@H](Cc2c[nH]c3ccccc23)NC(=O)[C@H](CCCNC(=N)N)NC(=O)[C@H](Cc2c[nH]c3ccccc23)NC1=O [[W5R4C], [WRWRWRWRWC]]
Ki [1]: 340 ± 20 nM

Compound: CC(=O)N[C@@H](Cc1c[nH]c2ccccc12)C(=O)N[C@@H](Cc1c[nH]c2ccccc12)C(=O)N[C@@H](Cc1c[nH]c2ccccc12)C(=O)N[C@@H](Cc1c[nH]c2ccccc12)C(=O)NCCCC[C@@H]1NC(=O)[C@H](CCCNC(=N)N)NC(=O)[C@H](CCCNC(=N)N)NC(=O)[C@H](CCCNC(=N)N)NC(=O)[C@H](CCCNC(=N)N)NC(=O)[C@H](CCCNC(=N)N)NC1=O [W4-[R5], N-acetyl-WWWW-[KRRRRR]]
Ki [1]: 100 ± 140 nM
inhibition of intracellular convertase activity (SEAP release) [2]: most effective compound in cells

furin inhibition [1]: ~ 60%
Compound: KETWWETWWTEWSQPKKKRKV [Chariot]

Compound: Nona-D-arginine amide
inhibition constants against furin and other convertases [3]: nanomolar range
Ki [3]: 1.3 ± 2 nM

Compound: hexa-D-arginine amide
inhibition constants against furin and other convertases [3]: nanomolar range
Ki [3]: 106 ± 10 nM

Compound: N=C(N)NCCC[C@H](NC(=O)[C@H](CCCNC(=N)N)NC(=O)[C@H](CCCNC(=N)N)NC(=O)[C@H](CCC(N)=O)NC(=O)[C@H](CCCNC(=N)N)NC(=O)[C@H](CCCNC(=N)N)NC(=O)[C@H](CCCCN)NC(=O)[C@H](CCCCN)NC(=O)[C@H](CCCNC(=N)N)NC(=O)CNC(=O)[C@@H](N)Cc1ccc(O)cc1)C(=O)O [HIV-1 TAT47-57, YGRKKRRQRRR]
furin inhibition [1]: nearly complete
inhibition at 10 µM ([1]; read-out: furin inhibition): ~60%
toxicity to HT1080 cells [4]: non-toxic

Source: paper PMC4482483, “Cationic Cell-Penetrating Peptides Are Potent Furin Inhibitors” (PLoS ONE, 2015)
